Tests used:
Experiment in all cases: Test G preemergence/postemergence greenhouse plant response rating 0 to 100
bermudagrass = type: in vivo, Cynodon dactylon; details: 0 to 100 scale
In short: (§1)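 Scoring: visual injury at 13 to 21 days post-application, compared with untreated controls. Planting: one species per pot in greenhouse medium. Dosing: compound in non-phytotoxic solvent, within one day of sowing for preemergence or at 2–4 leaves for postemergence.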

guineagrass = type: in vivo, Panicum maximum; details: 0 to 100 scale
In short: as §1

alfalfa = type: in vivo, Medicago ativa; details: 0 to 100 scale
In short: as §1

purple nutsedge = type: in vivo, Cyperus rotundus; details: Rate 125 g/ha, 0 to 100 scale
In short: as §1

large crabgrass = type: in vivo, Digitaria sanguinalis; details: 0 to 100 scale
In short: as §1

peanut = type: in vivo, Arachis hypoagaea; details: 0 to 100 scale
In short: as §1

common purslane = type: in vivo, Portulaca oleracea; details: 0 to 100 scale
In short: as §1

johnsongrass = type: in vivo, Sorghum halepense; details: 0 to 100 scale
In short: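 Visual injury scores, taken 13–21 d after spraying and judged against untreated pots; dash = not tested. Single-species greenhouse pots; test chemical dissolved in non-phytotoxic solvent. Pre: applied ≤1 d post-planting.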

goosegrass = type: in vivo, Eleusine indica; details: 0 to 100 scale
In short: as §1

annual bluegrass = type: in vivo, Poa annua; details: 0 to 100 scale
In short: as §1

itchgrass = type: in vivo, Rottboellia exaltata; details: 0 to 100 scale
In short: as §1

dallisgrass = type: in vivo, Paspalum dilatatum; details: 0 to 100 scale
In short: as §1

broadleaf signalgrass = type: in vivo, Brachiaria plantaginea; details: 0 to 100 scale
In short: as §1

smooth crabgrass = type: in vivo, Digitaria ischaemum; details: 0 to 100 scale
In short: as §1

yellow nutsedge = type: in vivo, Cyperus esculentus; details: Rate 125 g/ha, 0 to 100 scale
In short: as §1

common ragweed = type: in vivo, Ambrosia elatior; details: 0 to 100 scale
In short: as §1

pitted morningglory = type: in vivo, Ipomoea lacunosa; details: 0 to 100 scale
In short: as §1

C=CCN1C(=O)COc2cc(F)c(-c3nn4c(c3Cl)CCCC4)cc21 [Compound 33]
30: Plant response rating, Pit Morninglory (pitted morningglory; POSTEMERGENCE, Rate 125 g/ha)
40: Plant response rating, Cmn Purslane (common purslane; PREEMERGENCE, Rate 250 g/ha)
0: Plant response rating, Bermudagrass (bermudagrass; POSTEMERGENCE, Rate 125 g/ha) | Plant response rating, Bermudagrass (bermudagrass; POSTEMERGENCE, Rate 250 g/ha) | Plant response rating, Bermudagrass (bermudagrass; PREEMERGENCE, Rate 125 g/ha) | Plant response rating, Bermudagrass (bermudagrass; PREEMERGENCE, Rate 250 g/ha) | Plant response rating, Guineagrass (guineagrass; POSTEMERGENCE, Rate 125 g/ha) | Plant response rating, Guineagrass (guineagrass; POSTEMERGENCE, Rate 250 g/ha) | Plant response rating, Guineagrass (guineagrass; PREEMERGENCE, Rate 125 g/ha) | Plant response rating, Guineagrass (guineagrass; PREEMERGENCE, Rate 250 g/ha) | Plant response rating, Alfalfa Var. (alfalfa; POSTEMERGENCE, Rate 125 g/ha) | Plant response rating, Alfalfa Var. (alfalfa; POSTEMERGENCE, Rate 250 g/ha) | Plant response rating, Alfalfa Var. (alfalfa; PREEMERGENCE, Rate 125 g/ha) | Plant response rating, Alfalfa Var. (alfalfa; PREEMERGENCE, Rate 250 g/ha) | Plant response rating, Purple Nutsedge (purple nutsedge; PREEMERGENCE) | Plant response rating, Large Crabgrass (large crabgrass; POSTEMERGENCE, Rate 125 g/ha) | Plant response rating, Large Crabgrass (large crabgrass; POSTEMERGENCE, Rate 250 g/ha) | Plant response rating, Large Crabgrass (large crabgrass; PREEMERGENCE, Rate 125 g/ha) | Plant response rating, Large Crabgrass (large crabgrass; PREEMERGENCE, Rate 250 g/ha) | Plant response rating, Peanuts (peanut; POSTEMERGENCE, Rate 125 g/ha) | Plant response rating, Peanuts (peanut; POSTEMERGENCE, Rate 250 g/ha) | Plant response rating, Peanuts (peanut; PREEMERGENCE, Rate 125 g/ha) | Plant response rating, Peanuts (peanut; PREEMERGENCE, Rate 250 g/ha) | Plant response rating, Cmn Purslane (common purslane; PREEMERGENCE, Rate 125 g/ha) | Plant response rating, Johnsongrass (johnsongrass; POSTEMERGENCE, Rate 125 g/ha) | Plant response rating, Johnsongrass (johnsongrass; POSTEMERGENCE, Rate 250 g/ha) | Plant response rating, Johnsongrass (johnsongrass; PREEMERGENCE, Rate 125 g/ha) | Plant response rating, Johnsongrass (johnsongrass; PREEMERGENCE, Rate 250 g/ha) | Plant response rating, Goosegrass (goosegrass; POSTEMERGENCE, Rate 125 g/ha) | Plant response rating, Goosegrass (goosegrass; POSTEMERGENCE, Rate 250 g/ha) | Plant response rating, Goosegrass (goosegrass; PREEMERGENCE, Rate 125 g/ha) | Plant response rating, Goosegrass (goosegrass; PREEMERGENCE, Rate 250 g/ha) | Plant response rating, Ann Bluegrass (annual bluegrass; POSTEMERGENCE, Rate 125 g/ha) | Plant response rating, Ann Bluegrass (annual bluegrass; POSTEMERGENCE, Rate 250 g/ha) | Plant response rating, Ann Bluegrass (annual bluegrass; PREEMERGENCE, Rate 125 g/ha) | Plant response rating, Ann Bluegrass (annual bluegrass; PREEMERGENCE, Rate 250 g/ha) | Plant response rating, Itchgrass (itchgrass; POSTEMERGENCE, Rate 125 g/ha) | Plant response rating, Itchgrass (itchgrass; POSTEMERGENCE, Rate 250 g/ha) | Plant response rating, Itchgrass (itchgrass; PREEMERGENCE, Rate 125 g/ha) | Plant response rating, Itchgrass (itchgrass; PREEMERGENCE, Rate 250 g/ha) | Plant response rating, Dallisgrass (dallisgrass; POSTEMERGENCE, Rate 125 g/ha) | Plant response rating, Dallisgrass (dallisgrass; POSTEMERGENCE, Rate 250 g/ha) | Plant response rating, Dallisgrass (dallisgrass; PREEMERGENCE, Rate 125 g/ha) | Plant response rating, Dallisgrass (dallisgrass; PREEMERGENCE, Rate 250 g/ha) | Plant response rating, Brdlf Sgnlgrass (broadleaf signalgrass; POSTEMERGENCE, Rate 125 g/ha) | Plant response rating, Brdlf Sgnlgrass (broadleaf signalgrass; POSTEMERGENCE, Rate 250 g/ha) | Plant response rating, Brdlf Sgnlgrass (broadleaf signalgrass; PREEMERGENCE, Rate 125 g/ha) | Plant response rating, Brdlf Sgnlgrass (broadleaf signalgrass; PREEMERGENCE, Rate 250 g/ha) | Plant response rating, Smooth Crabgras (smooth crabgrass; POSTEMERGENCE, Rate 125 g/ha) | Plant response rating, Smooth Crabgras (smooth crabgrass; POSTEMERGENCE, Rate 250 g/ha) | Plant response rating, Smooth Crabgras (smooth crabgrass; PREEMERGENCE, Rate 125 g/ha) | Plant response rating, Smooth Crabgras (smooth crabgrass; PREEMERGENCE, Rate 250 g/ha) | Plant response rating, Yellow Nutsedge (yellow nutsedge; POSTEMERGENCE) | Plant response rating, Yellow Nutsedge (yellow nutsedge; PREEMERGENCE) | Plant response rating, Cmn Ragweed (common ragweed; PREEMERGENCE, Rate 125 g/ha) | Plant response rating, Cmn Ragweed (common ragweed; PREEMERGENCE, Rate 250 g/ha) | Plant response rating, Pit Morninglory (pitted morningglory; PREEMERGENCE, Rate 125 g/ha) | Plant response rating, Pit Morninglory (pitted morningglory; PREEMERGENCE, Rate 250 g/ha)
80: Plant response rating, Cmn Purslane (common purslane; POSTEMERGENCE, Rate 250 g/ha) | Plant response rating, Cmn Ragweed (common ragweed; POSTEMERGENCE, Rate 125 g/ha)
50: Plant response rating, Cmn Ragweed (common ragweed; POSTEMERGENCE, Rate 250 g/ha)
100: Plant response rating, Cmn Purslane (common purslane; POSTEMERGENCE, Rate 125 g/ha) | Plant response rating, Pit Morninglory (pitted morningglory; POSTEMERGENCE, Rate 250 g/ha)
10: Plant response rating, Purple Nutsedge (purple nutsedge; POSTEMERGENCE)

C#CCN1C(=O)COc2cc(F)c(-c3nn4c(c3Cl)CCCC4)cc21 [Compound 34]
60: Plant response rating, Alfalfa Var. (alfalfa; POSTEMERGENCE, Rate 250 g/ha) | Plant response rating, Large Crabgrass (large crabgrass; PREEMERGENCE, Rate 250 g/ha)
0: Plant response rating, Bermudagrass (bermudagrass; POSTEMERGENCE, Rate 125 g/ha) | Plant response rating, Bermudagrass (bermudagrass; POSTEMERGENCE, Rate 250 g/ha) | Plant response rating, Bermudagrass (bermudagrass; PREEMERGENCE, Rate 125 g/ha) | Plant response rating, Bermudagrass (bermudagrass; PREEMERGENCE, Rate 250 g/ha) | Plant response rating, Guineagrass (guineagrass; POSTEMERGENCE, Rate 125 g/ha) | Plant response rating, Guineagrass (guineagrass; POSTEMERGENCE, Rate 250 g/ha) | Plant response rating, Guineagrass (guineagrass; PREEMERGENCE, Rate 125 g/ha) | Plant response rating, Guineagrass (guineagrass; PREEMERGENCE, Rate 250 g/ha) | Plant response rating, Alfalfa Var. (alfalfa; PREEMERGENCE, Rate 125 g/ha) | Plant response rating, Purple Nutsedge (purple nutsedge; PREEMERGENCE) | Plant response rating, Large Crabgrass (large crabgrass; POSTEMERGENCE, Rate 125 g/ha) | Plant response rating, Large Crabgrass (large crabgrass; POSTEMERGENCE, Rate 250 g/ha) | Plant response rating, Large Crabgrass (large crabgrass; PREEMERGENCE, Rate 125 g/ha) | Plant response rating, Peanuts (peanut; POSTEMERGENCE, Rate 250 g/ha) | Plant response rating, Peanuts (peanut; PREEMERGENCE, Rate 125 g/ha) | Plant response rating, Peanuts (peanut; PREEMERGENCE, Rate 250 g/ha) | Plant response rating, Cmn Purslane (common purslane; PREEMERGENCE, Rate 125 g/ha) | Plant response rating, Johnsongrass (johnsongrass; POSTEMERGENCE, Rate 125 g/ha) | Plant response rating, Johnsongrass (johnsongrass; POSTEMERGENCE, Rate 250 g/ha) | Plant response rating, Johnsongrass (johnsongrass; PREEMERGENCE, Rate 125 g/ha) | Plant response rating, Johnsongrass (johnsongrass; PREEMERGENCE, Rate 250 g/ha) | Plant response rating, Goosegrass (goosegrass; POSTEMERGENCE, Rate 125 g/ha) | Plant response rating, Goosegrass (goosegrass; POSTEMERGENCE, Rate 250 g/ha) | Plant response rating, Goosegrass (goosegrass; PREEMERGENCE, Rate 125 g/ha) | Plant response rating, Ann Bluegrass (annual bluegrass; POSTEMERGENCE, Rate 125 g/ha) | Plant response rating, Ann Bluegrass (annual bluegrass; POSTEMERGENCE, Rate 250 g/ha) | Plant response rating, Ann Bluegrass (annual bluegrass; PREEMERGENCE, Rate 125 g/ha) | Plant response rating, Itchgrass (itchgrass; POSTEMERGENCE, Rate 125 g/ha) | Plant response rating, Itchgrass (itchgrass; POSTEMERGENCE, Rate 250 g/ha) | Plant response rating, Itchgrass (itchgrass; PREEMERGENCE, Rate 125 g/ha) | Plant response rating, Dallisgrass (dallisgrass; POSTEMERGENCE, Rate 125 g/ha) | Plant response rating, Dallisgrass (dallisgrass; POSTEMERGENCE, Rate 250 g/ha) | Plant response rating, Dallisgrass (dallisgrass; PREEMERGENCE, Rate 125 g/ha) | Plant response rating, Brdlf Sgnlgrass (broadleaf signalgrass; POSTEMERGENCE, Rate 125 g/ha) | Plant response rating, Brdlf Sgnlgrass (broadleaf signalgrass; POSTEMERGENCE, Rate 250 g/ha) | Plant response rating, Brdlf Sgnlgrass (broadleaf signalgrass; PREEMERGENCE, Rate 125 g/ha) | Plant response rating, Brdlf Sgnlgrass (broadleaf signalgrass; PREEMERGENCE, Rate 250 g/ha) | Plant response rating, Smooth Crabgras (smooth crabgrass; POSTEMERGENCE, Rate 125 g/ha) | Plant response rating, Smooth Crabgras (smooth crabgrass; POSTEMERGENCE, Rate 250 g/ha) | Plant response rating, Smooth Crabgras (smooth crabgrass; PREEMERGENCE, Rate 125 g/ha) | Plant response rating, Yellow Nutsedge (yellow nutsedge; POSTEMERGENCE) | Plant response rating, Yellow Nutsedge (yellow nutsedge; PREEMERGENCE) | Plant response rating, Cmn Ragweed (common ragweed; PREEMERGENCE, Rate 125 g/ha) | Plant response rating, Cmn Ragweed (common ragweed; PREEMERGENCE, Rate 250 g/ha) | Plant response rating, Pit Morninglory (pitted morningglory; PREEMERGENCE, Rate 125 g/ha)
20: Plant response rating, Purple Nutsedge (purple nutsedge; POSTEMERGENCE) | Plant response rating, Itchgrass (itchgrass; PREEMERGENCE, Rate 250 g/ha)
30: Plant response rating, Peanuts (peanut; POSTEMERGENCE, Rate 125 g/ha) | Plant response rating, Goosegrass (goosegrass; PREEMERGENCE, Rate 250 g/ha) | Plant response rating, Pit Morninglory (pitted morningglory; POSTEMERGENCE, Rate 125 g/ha) | Plant response rating, Pit Morninglory (pitted morningglory; PREEMERGENCE, Rate 250 g/ha)
80: Plant response rating, Dallisgrass (dallisgrass; PREEMERGENCE, Rate 250 g/ha) | Plant response rating, Smooth Crabgras (smooth crabgrass; PREEMERGENCE, Rate 250 g/ha)
40: Plant response rating, Alfalfa Var. (alfalfa; POSTEMERGENCE, Rate 125 g/ha)
100: Plant response rating, Alfalfa Var. (alfalfa; PREEMERGENCE, Rate 250 g/ha) | Plant response rating, Cmn Purslane (common purslane; POSTEMERGENCE, Rate 125 g/ha) | Plant response rating, Cmn Purslane (common purslane; POSTEMERGENCE, Rate 250 g/ha) | Plant response rating, Cmn Purslane (common purslane; PREEMERGENCE, Rate 250 g/ha) | Plant response rating, Cmn Ragweed (common ragweed; POSTEMERGENCE, Rate 250 g/ha)
70: Plant response rating, Cmn Ragweed (common ragweed; POSTEMERGENCE, Rate 125 g/ha)
50: Plant response rating, Ann Bluegrass (annual bluegrass; PREEMERGENCE, Rate 250 g/ha) | Plant response rating, Pit Morninglory (pitted morningglory; POSTEMERGENCE, Rate 250 g/ha)

— patent publication US6358885B1, “Substituted phenylheterocyclic herbicides” (Mississippi State University, priority 1992, dated 2002)
